Reference: article PMC12064818, “A general assay platform to study protein pharmacology using ligand-dependent structural dynamics” (Nature Communications, 2025)
“And” between values parts separate entries of the source, which are not always exact repeats. Equal entries are not always repeated.

Target: T1, T7 Lig-C-HiBiT (DNA ligase) (Escherichia phage T7, UniProt P00969)
T1 sequence (P00969 2-359): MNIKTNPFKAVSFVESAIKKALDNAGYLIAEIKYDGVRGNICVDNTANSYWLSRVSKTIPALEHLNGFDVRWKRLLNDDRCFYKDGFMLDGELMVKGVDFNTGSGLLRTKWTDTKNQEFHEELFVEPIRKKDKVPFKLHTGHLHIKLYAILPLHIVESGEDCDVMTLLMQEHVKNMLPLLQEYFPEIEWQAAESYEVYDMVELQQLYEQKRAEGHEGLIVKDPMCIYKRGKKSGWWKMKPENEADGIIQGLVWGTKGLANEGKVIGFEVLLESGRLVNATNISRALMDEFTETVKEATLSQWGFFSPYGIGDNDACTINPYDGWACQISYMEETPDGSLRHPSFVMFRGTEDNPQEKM
Assay: SDR assay (aqueous ligand dispense), T7 Lig-C-HiBiT
Conditions: for SDR assay data: 1 nM T7 Lig-C-HiBiT; for SDR assay data / SDR response: Log [ATP]; for SDR response: replicates

[1] = T7 Lig-C-HiBiT (1 nM), ligand 100 µM

Nc1ncnc2c1ncn2[C@@H]1O[C@H](COP(=O)(O)OP(=O)(O)OP(=O)(O)O)[C@@H](O)[C@H]1O [ATP]
EC50: ≥ 100 µM
SDR assay data (M -2.85): 216.5 and 209.6 and 219.5
SDR assay data (M -3.15): 141.4 and 163.1 and 159.6
SDR assay data (M -3.45): 83.0 and 105.1 and 112.1
SDR assay data (M -3.75): 54.1 and 71.7 and 73.7
SDR assay data (M -4.35): 22.4 and 27.8 and 30.1
SDR assay data (M -4.65): 18.5 and 22.1 and 22.3
SDR assay data (M -4.95): 14.4 and 13.8
SDR assay data (M -5.25): 9.3 and 8.9
SDR assay data (M -5.55): 9.2 and 6.3
SDR assay data (M -6.16): 7.3 and 4.5
SDR assay data (M -6.46): 6.2 and 3.9 and 5.5
SDR response (M -2.85): 216.5 and 209.6 and 219.5
SDR response (M -3.15): 141.4 and 163.1 and 159.6
SDR response (M -3.45): 83.0 and 105.1 and 112.1
SDR response (M -3.75): 54.1 and 71.7 and 73.7
SDR response (M -4.05): 18.5 and 46.9 and 44.7
SDR response (M -4.35): 22.4 and 27.8 and 30.1
SDR response (M -4.65): 18.5 and 22.1 and 22.3
SDR response (M -4.95): 14.4 and 13.8
SDR response (M -5.25): 9.3 and 8.9
SDR response (M -5.55): 9.2 and 6.3
SDR response (M -5.86): 6.9 and 3.3 and 6.8
SDR response (M -6.16): 7.3 and 4.5
SDR response (M -6.46): 6.2 and 3.9 and 5.5
SDR response (M -6.76): 4.6 and 1.8 and 4.9
SDR assay response (in words) (T7 Lig-C-HiBiT): strong SDR signal
SDR assay statistics Ave RLU [1]: 70.8 RLU
SDR assay statistics S:B [1]: 1.4
SDR assay statistics Z’ [1]: -0.186
max resp (T7 Lig-C-HiBiT, maximum response): 215.2
